This is an account of results in US11013830B2, “5-hydroxytryptamine 1B receptor-stimulating agent for enhancing in vivo engraftment potential” (INSTITUT PASTEUR, priority 2015, dated 2021).

Assay [1] has as its system muscle stem cells. Description: Engraftment of grafted muscle stem cells (satellite cells) in cardiotoxin-injured tibialis anterior of Rag-/-γC-/- mice. It is filed as in vivo. As to conditions: 28 days post injury. As to the method: For image analysis, ImageJ 1.46r software was using between 10 different photos randomly taken per section and 3 sections minimum per experimental group. The pictures were converted in a binary image and then the pixel values were collected. For fibre size, the sections were immunostained with rabbit anti Laminin (Sigma-Aldrich #L9393) diluted at 1/200, overnight at 4° C. Secondary Donkey ant Rabbit 488 (DL488 JacksonImmuno #711486152) were used at 1/200 45 minutes at room temperature. The fibre perimeter was done automatically by using Pixcavator® software.
In order to investigate the potential effect of fluoxetine and vortioxetine on the muscle engraftment potential, Rag^−/−γC^−/− immunodeficient mice (Sanchez et al., 2013) were used in this study. Mice were injured with cardiotoxin in the tibialis anterior (TA) and injected with 10,000 satellite cells (SC) 24 hours after the injury. The satellite cells (SC) were obtained from Tg:Pax7nGFP::PLAP mice (Deprimo et al., 1996; Rocheteau et al., 2012), allowing the prospective isolation of a pure population of SC by FACS (Pax7 being a specific marker of SC) and the follow up (PLAP placental alkaline phosphatase being an ubiquitous marker). The TA had been sampled 28 days post engraftment and the number of PLAP fibres was counted.
The Rag^−/−γC^−/− were treated for 6 weeks with fluoxetine per os at 18 mg/Kg at the time of the graft and the treatment continued during the regeneration process (FIG. 1a). When regeneration was completed 28 days post injury, the percentage of PLAP positive fibres was 20.5%±6.5 against 36%±6.2 in the treated animals (p=0.016; n=5, FIG. 1b-d).
To investigate the potential effect of vortioxetine on the engraftment potential, the same approach was used. The Rag^−/−γC^−/− were treated for 12 days by intra peritoneal injections at 20 mg/Kg. Twelve days after the beginning of the treatment, the mice were injured and grafted with Pax7nGFP:PLAP SC. The treatment was continuous during the entire regenerative process (FIG. 1e). 28 days post injury the TA were sampled and stained for Laminin and PLAP. 19%±7.7 fibres were PLAP+ after placebo treatment against 36.1%±5.7 in the vortioxetine treated animals (p=0.028, n=4, FIG. 1f-h).

The next assay concerns bone marrow cells. Description: Engraftment of Tg:ActinGFP bone marrow cells in irradiated Rag-/-γc-/- mice, GFP+ cells by cytometry. It is filed as in vivo. The text has this: For bone marrow analysis, animals were sacrificed and bone marrow was flushed and filtered through 40 μm cell strainer. The bulk was then directly assessed using Gallios A94303 (Beckman Coulter) and analysed with Kaluza flow cytometry software.
In order to investigate the potential effect of fluoxetine and vortioxetine on the bone marrow engraftment potential, Rag^−/−γc^−/− immunodeficient mice were used. These mice were irradiated at 95 cGy and then injected intravenously with 2 million cells taken from Tg:ActinGFP mouse (Okabe et al., 1997), to track the fate of the grafted cells.
Rag^−/−γc^−/− mice were treated with fluoxetine per os at 18 mg/Kg for 6 weeks. […] The number of GFP+ cells were investigated after 5 weeks in the bone marrow (the treatment was never discontinued). 63.7%±6.5 of GFP+ cells were detected in the placebo mice and 80.7%±8.4 GFP+ cells in the fluoxetine treated mice (p=0.0023, n=7, FIG. 2b,c). There was thus a 25% increase in engraftment efficiency in the fluoxetine treated animals.
To investigate the potential effect of vortioxetine on the engraftment potential, the same approach was used. The Rag^−/−γc^−/− were treated for 12 days by intra peritoneal injections at 20 mg/Kg. Twelve days after the beginning of the treatment, the mice were irradiated at 95 cGy and intravenously grafted with 2 million freshly isolated bone marrow cells from Tg:ActinGFP. 5 weeks after grafting the mice were sacrificed and bone marrow was flushed and analysed (FIG. 2d). The number of GFP+ cells was investigated after 5 weeks in the bone marrow (the treatment was never discontinued). 65.8%±5.5 cells were found in the placebo mice while 80.2%±5.8 cells were found in the vortioxetine treated animals (p=0.0079, n=5, FIG. 2e). There was thus a 21% increase in engraftment potential of bone marrow cells after vortioxetine treatment.
To further characterise the timing of vortioxetine beneficial effects, the previous experiment was repeated without 12 days of pre-treatment (FIG. 2e,f). Rag^−/−γc^−/− were irradiated and grafted 2 hours post irradiation fresh bone marrow from Tg:ActinGFP mice. The same placebo was used displaying 65.8%±5.5 of GFP+ cells and 77.2%7.6 GFP+ cells in the vortioxetine treated animals at the time of the irradiation (p=0.04, n=5, FIG. 2e,g). A similar increase in engraftment potential (17%) was observed when animals were not pre-treated.

Assay [2] relates to muscle stem cells. To be noted: fluoxetine 18 mg/Kg for 6 weeks; after 21 days; n=8; placebo 25.7%±8.7.
Protocol: Mice were anesthetised and injured with cardiotoxin 18 hours before grafting in the tibialis anterior. Before grafting the mice were anesthetised again and grafted with 10,000 cells in 40 nl in PBS. Mice were kept for 28 days until muscle regeneration was complete. […] Mice were sacrificed 5 weeks after the injection.
Tibialis anterior was carefully dissected and snap frozen in liquid-nitrogen-cooled isopentane for a few minutes and stored at −80° C. prior to cryosectioning (10 μm sections). Sections were kept at room temperature overnight before staining. Sections were then rehydrated in PBS for 10 minutes and fixed in 10% formalin for 3 minutes. The sections were then routinely stained with PLAP antibody manually.
Fluoxetine treatment was provided at 18 mg/Kg for 6 weeks to Rag^−/−γc^−/− mice. The tibialis anterior (TA) was injured and 18 h post injury 10,000 satellite cells (SC) coming from Tg:Pax7nGFP:PLAP:MyHC2E3FLacZ triple transgenic mice were grafted to the Rag^−/−γc^−/− mice pre-treated with fluoxetine.

With `Cc1ccc(Sc2ccccc2N2CCNCC2)c(C)c1` [vortioxetine, 1-[2-(2,4-Dimethylphenylsulfanyl)phenyl]piperazine], in the assay on muscle stem cells [1] (vortioxetine intra peritoneal 20 mg/Kg for 12 days before graft and continued, n=4, placebo 19%±7.7), the “percentage of PLAP+ fibres” value is on record as 36.1%±5.7. Also, the “engraftment potential of the injected SC versus placebo” value with muscle stem cells [1] (vortioxetine intra peritoneal 20 mg/Kg, 12 days pre-treatment) is reported as “more than doubled”. The “increase in engraftment potential of bone marrow cells versus placebo” value in the assay on bone marrow cells (vortioxetine 20 mg/Kg, 12 days pre-treatment, 5 weeks after grafting) stood at 21%. In addition, the “GFP+ cells in the bone marrow” value in the assay on bone marrow cells (vortioxetine intra peritoneal 20 mg/Kg for 12 days before irradiation/graft, never discontinued, 5 weeks after grafting, n=5, placebo 65.8%±5.5) is on record as 80.2%±5.8; with bone marrow cells (vortioxetine started at the time of the irradiation, without 12 days of pre-treatment, 5 weeks after grafting, n=5, placebo 65.8%±5.5), 77.2%. Moreover, the “increase in engraftment potential versus placebo” value in the assay with bone marrow cells (vortioxetine, animals not pre-treated) amounted to 17%.

On to `CNCCC(Oc1ccc(C(F)(F)F)cc1)c1ccccc1` (centres unmarked) [fluoxetine], for which the “percentage of PLAP positive fibres” value in the assay on muscle stem cells [1] (fluoxetine per os 18 mg/Kg for 6 weeks before graft and continued, n=5, placebo 20.5%±6.5) is listed as 36%±6.2. Besides, the “engraftment potential of the injected SC versus placebo” value in the assay with muscle stem cells [1] (fluoxetine per os 18 mg/Kg, 6 weeks pre-treatment) is recorded as “almost doubled”. The “GFP+ cells in the bone marrow” value in the assay on bone marrow cells (fluoxetine per os 18 mg/Kg for 6 weeks before irradiation/graft, never discontinued, 5 weeks after grafting, n=7, placebo 63.7%±6.5) is reported as 80.7%±8.4. Moreover, in the assay with bone marrow cells (fluoxetine per os 18 mg/Kg, 6 weeks pre-treatment, 5 weeks after grafting), the “increase in engraftment efficiency versus placebo” value was 25%. The “percentage of fibers PLAP+ (coming from the graft)” value in the assay with muscle stem cells [2] is given as 39%±6.6.
